Results taken from US20060067990A1 (priority 2004, published 2006).
“And” between values parts separate entries of the source, which are not always exact repeats. Identical values can stand only once.

Assays:
S. aureus MN8 = type: cell-based, Staphylococcus aureus
TSST-1 [1] = type: cell-based, Staphylococcus aureus
[2] = tested on: enzymes produced by S. aureus MN8; assay: Breakdown of test compounds by enzymes produced by S. aureus MN8 (GC/MS and liquid chromatography of culture fluid); type: in vitro ADME, Staphylococcus aureus; conditions: Example 7; for GC/MS: concentration of the dominant compound over time / GC/MS: dominant compound found in the sample: culture fluid at 3, 6, 9 and 24 hours
Protocol: The test compounds, in the desired concentrations, were placed in 100 mL of a growth medium in a sterile, 500 mL Corning Fleaker (Fisher Scientific, Pittsbury, Pa.). The growth medium and inoculum were prepared as in Example 1.
The test compounds were added to the growth medium in the amount necessary to obtain the desired final concentration.
Each fleaker was inoculated with the amount of inoculum determined as described above. The fleakers were capped with sterile aluminum foil and incubated at 35° C. in atmospheric air in a Lab-Line orbital water bath (available from VWR Scientific Products, McGaw Park, Ill.) at 180 rpm. Fifteen milliliter samples were removed at 3, 6, 9, and 24 hours. The optical density (595 nm) of the culture fluid was determined and the culture fluid collected at 24 hours was assayed for the number of colony forming units of S. aureus MN8 using standard plate count procedures.
In preparation for analysis of the integrity of the test compounds, the culture fluid was centrifuged at 3000 rpm at 2-10° C. for 15 minutes. The supernatant was filter sterilized through an AUTOVIAL 5 syringeless filter, […] pore size (available from Whatman, Inc., Clifton, N.J.). The resulting fluid was frozen at −70° C. in a FISHERBRAND (12 mm×75 mm) polystyrene culture tube (Fisher Scientific, Pittsburgh, Pa.) until chemical analysis could be performed.
Using an Agilent Technologies 5973N GC/MS, analysis was performed on undiluted solutions at 3, 6, 9, and 24 hours to evaluate the ability of S. aureus MN8 to breakdown the test compounds. Based on the analysis, the control sample, which had no test compounds added, comprised mostly acetic acid at all time intervals.
Additional analysis of the 6 hour and 24 hour samples was conducted by liquid chromatography. In preparation for the chromatography, the samples were diluted 10 fold with water. The dilutions were then analyzed using an ion exclusion column to achieve the separation. Detection of the compounds was accomplished through UV absorbance at 230 nm.

TSST-1 [3] = type: cell-based, Staphylococcus aureus; remark: listed apart in the source

Row | Molecule | CFU/mL (S. aureus MN8) | GC/MS: concentration of the dominant compound over time [2] | GC/MS: dominant compound found in the sample [2] | also measured
1 | CC(C)C(NC(=O)c1ccccc1)C(=O)O (racemic) [N-benzoyl-DL-valine, N-Benzoyl-DL-Valine] | 1.61E+08 CFU/mL and 2.07E+08 CFU/mL |  |  | 
2 | myreth-3-myristate [Cetiol 1414E] | 1.75E+08 CFU/mL and 2.61E+08 CFU/mL and 2.48E+08 CFU/mL and 2.05E+08 CFU/mL |  |  | CFU/mL ×10^7 (S. aureus MN8): 22.5 CFU/mL ×10^7 and 25.6 CFU/mL ×10^7 and 17.4 CFU/mL ×10^7; inhibition of the growth of S. aureus, pairwise statistical comparison (S. aureus MN8): significantly greater inhibition of the growth of S. aureus; % Reduction (TSST-1 [1]): 74% and 69% and 87%; ELISA: TSST-1 (% inhibition) (TSST-1 [1]): (79%); ELISA: TSST-1 Nanograms/mL (TSST-1 [1]): 61 Nanograms/mL
3 | CC(C)CC(NC(=O)c1ccccc1)C(=O)O (racemic) [N-benzoyl-DL-leucine, N-Benzoyl-DL-Leucine] | 2.23E+08 CFU/mL and 2.69E+08 CFU/mL | decreasing concentration over time | benzoic acid as the dominant compound | ELISA: TSST-1 ng per mL (TSST-1 [1]): 7.9 ng per mL and 14.6 ng per mL; liquid chromatography: evidence of breakdown to the active species ([2]; 6 hour and 24 hour samples, UV 230 nm): breakdown to benzoic acid
4 | O=C(O)c1ccccc1 [benzoic acid] |  | decreased over time | benzoic acid | 
5 | OCc1ccccc1 [Benzyl alcohol, benzyl alcohol] | 5.02E+08 CFU/mL and 7.52E+08 CFU/mL | decreased over time | benzyl alcohol | toxin production, pairwise statistical comparison (TSST-1 [1]): significantly decreased toxin production; TSST-1 ng/mL (TSST-1 [3]): 2.46 ng/mL and 2.22 ng/mL and 1.33 ng/mL
6 | CCCCCCCCCCCC(=O)OCc1ccccc1 [Benzyl laurate, Benzyl- laurate] | 2.05E+08 CFU/mL and 3.05E+08 CFU/mL and 4.05E+08 CFU/mL and 3.80E+08 CFU/mL |  |  | 
